The results in this text go back to patent US20230143612A1 (Arbutus Biopharma Corporation, priority 2020, published 2023).

This assay concerns the target PD-L1 His protein / PD-1 Fc protein (Homo sapiens, UniProt Q9NZQ7). Kind of assay: HTRF Assay (PD-1/PD-L1 interaction). It is filed as binding. The conditions noted are these: PD-L1 His 6 nM, PD-1 Fc 6 nM. The essentials: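 HTRF: PD-L1 His (6 nM final), compound (3-fold dilutions, 20 μM to 0.001 μM final) and PD-1 Fc (6 nM final) preincubated 15 min at room temperature. Anti-human IgG-XL665 and anti-6HIS Tb cryptate (mixed at 6.7 nM and 0.35 nM) then added for 1 h at room temperature before reading.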
Background: Time-resolved FRET reads energy transfer from a long-lived donor to a nearby acceptor.

Chain of PD-L1 His protein / PD-1 Fc protein (Q9NZQ7 19-238 limits assumed): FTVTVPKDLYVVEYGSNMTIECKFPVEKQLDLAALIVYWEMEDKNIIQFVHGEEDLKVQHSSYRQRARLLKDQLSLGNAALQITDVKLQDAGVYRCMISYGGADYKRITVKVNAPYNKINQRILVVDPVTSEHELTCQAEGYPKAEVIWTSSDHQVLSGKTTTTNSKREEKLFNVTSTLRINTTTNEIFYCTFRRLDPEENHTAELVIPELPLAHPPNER

By IC50 is commonly meant the concentration that inhibits the measured activity by half. Low values mean greater potency in that assay, high ones weaker potency in that assay. As for `COc1nc(-c2cccc(-c3cccc(-c4ccn5c(=O)c(CNCC6(O)CC6)cnc5c4)c3Cl)c2Cl)ccc1CNC[C@@H]1CCC(=O)N1` [Example 234, (S)-8-(2,2′-Dichloro-3′-(6-methoxy-5-((((5-oxopyrrolidin-2-yl)methyl)amino)methyl)pyridin-2-yl)-[1,1′-biphenyl]-3-yl)-3-((((1-hydroxycyclopropyl)methyl)amino)methyl)-4H-pyrido[1,2-a]pyrimidin-4-one], the IC50 turned out to be 0.1 nM.
Consider `COc1nc(-c2cccc(-c3cccc(-c4cc(F)c(CNC[C@@H]5CCC(=O)N5)c(OC)n4)c3Cl)c2Cl)cc(F)c1CNC[C@@H]1CCC(=O)N1` [Example 236, (5S,5′S)-5,5′-(((((2,2′-dichloro-[1,1′-biphenyl]-3,3′-diyl)bis(4-fluoro-2-methoxypyridine-6,3-diyl))bis(methylene))bis(azanediyl))bis(methylene))bis(pyrrolidin-2-one)], for which the IC50 was determined as 1.2 nM.
In turn, `NC1(Cc2ccc(-c3cccc(-c4cccc(-c5ccn6c(=O)c(CNC[C@@H]7CCC(=O)N7)cnc6c5)c4Cl)c3Cl)cc2)CC1` [Example 237, (S)-8-(4″-((1-Aminocyclopropyl)methyl)-2,2′-dichloro-[1,1′:3′,1″-terphenyl]-3-yl)-3-((((5-oxopyrrolidin-2-yl)methyl)amino)methyl)-4H-pyrido[1,2-a]pyrimidin-4-one] showed an IC50 of 900 nM.
As for `COc1nc(-c2cccc(-c3cccc(-c4ccn5c(=O)c(CNC[C@@H](O)CC(N)=O)cnc5c4)c3Cl)c2Cl)ccc1CNC[C@@H]1CCC(=O)N1` [Example 238, (3S)-4-[[8-[2-chloro-3-[2-chloro-3-[6-methoxy-5-[[[(2S)-5-oxopyrrolidin-2-yl]methylamino]methyl]-2-pyridyl]phenyl]phenyl]-4-oxo-pyrido[1,2-a]pyrimidin-3-yl]methylamino]-3-hydroxy-butanamide], the figure is 0.1 nM.
Then `COc1nc(-c2cccc(-c3cccc(-c4ccc5nn(CCO)c(=O)n5c4)c3Cl)c2Cl)ccc1CNC[C@@H]1CCC(=O)N1` [Example 239, (S)-6-(2,2′-Dichloro-3′-(6-methoxy-5-((((5-oxopyrrolidin-2-yl)methyl)amino)methyl)pyridin-2-yl)-[1,1′-biphenyl]-3-yl)-2-(2-hydroxyethyl)-[1,2,4]triazolo[4,3-a]pyridin-3(2H)-one], with 0.1 nM.
As for `COc1nc(-c2cccc(-c3cccc(-c4nnc5n4CCNC5)c3Cl)c2Cl)ccc1CNC[C@@H]1CCC(=O)N1` [Example 240, (S)-5-((((6-(2,2′-Dichloro-3′-(5,6,7,8-tetrahydro-[1,2,4]triazolo[4,3-a]pyrazin-3-yl)-[1,1′-biphenyl]-3-yl)-2-methoxypyridin-3-yl)methyl)amino)methyl)pyrrolidin-2-one], the IC50 was 350 nM.
`COc1nc(-c2cccc(-c3cccc(-c4cnc5sc(N6CCN(CCO)CC6)nn45)c3Cl)c2Cl)ccc1CNC[C@@H]1CCC(=O)N1` [Example 241, (S)-5-((((6-(2,2′-Dichloro-3′-(2-(4-(2-hydroxyethyl)piperazin-1-yl)imidazo[2,1-b][1,3,4]thiadiazol-5-yl)-[1,1′-biphenyl]-3-yl)-2-methoxypyridin-3-yl)methyl)amino)methyl)pyrrolidin-2-one] registered an IC50 of 900 nM.
Then `COc1nc(-c2cccc(-c3cccc(-c4nnc5n4CCN(CCO)C5)c3Cl)c2Cl)ccc1CNC[C@@H]1CCC(=O)N1` [Example 242, (S)-5-((((6-(2,2′-Dichloro-3′-(7-(2-hydroxyethyl)-5,6,7,8-tetrahydro-[1,2,4]triazolo[4,3-a]pyrazin-3-yl)-[1,1′-biphenyl]-3-yl)-2-methoxypyridin-3-yl)methyl)amino)methyl)pyrrolidin-2-one], with 1700 nM; and `COc1nc(-c2cccc(-c3cccc(-c4ccn5c(=O)c(CNCC6(O)COC6)cnc5c4)c3Cl)c2Cl)ccc1CNC[C@@H]1CCC(=O)N1` [Example 243, (S)-8-(2,2′-dichloro-3′-(6-methoxy-5-((((5-oxopyrrolidin-2-yl)-methyl)-amino)-methyl)pyridin-2-yl)-[1,1′-biphenyl]-3-yl)-3-((((3-hydroxyoxetan-3-yl)methyl)-amino)-methyl)-4H-pyrido[1,2-a]-pyrimidin-4-one], with 0.3 nM.
Molecule `COc1nc(-c2cccc(-c3cccc(-c4ccn5c(=O)c(CNCC6(CO)COC6)cnc5c4)c3Cl)c2Cl)ccc1CNC[C@@H]1CCC(=O)N1` [Example 244, (S)-8-(2,2′-dichloro-3′-(6-methoxy-5-((((5-oxopyrrolidin-2-yl)methyl)amino)-methyl)-pyridin-2-yl)-[1,1′-biphenyl]-3-yl)-3-((((3-(hydroxymethyl)oxetan-3-yl)-methyl)-amino)-methyl)-4H-pyrido[1,2-a]pyrimidin-4-one] came in with an IC50 of 0.6 nM.
As for `COc1nc(-c2cccc(-c3cccc(-c4ccn5c(=O)c(CNCC6(C)COC6)cnc5c4)c3Cl)c2Cl)ccc1CNC[C@@H]1CCC(=O)N1` [Example 246, (S)-8-(2,2′-dichloro-3′-(6-methoxy-5-((((5-oxopyrrolidin-2-yl)-methyl)amino)-methyl)pyridin-2-yl)-[1,1′-biphenyl]-3-yl)-3-((((3-methyloxetan-3-yl)-methyl)-amino)-methyl)-4H-pyrido[1,2-a]pyrimidin-4-one], the figure is 6.7 nM.
The molecule `COc1nc(-c2cccc(-c3cccc(-c4ccc5oc(CNC[C@@H]6CCC(=O)N6)nc5c4)c3Cl)c2Cl)ccc1CNC[C@@H]1CCC(=O)N1` [Example 247, (S)-5-((((6-(2,2′-Dichloro-3′-(2-(((((S)-5-oxopyrrolidin-2-yl)methyl)amino)methyl)benzo[d]oxazol-5-yl)-[1,1′-biphenyl]-3-yl)-2-methoxypyridin-3-yl)methyl)amino)methyl)pyrrolidin-2-one] registered an IC50 of 450 nM.
As for `COc1nc(-c2cccc(-c3cccc(-c4ccc5nc(CNC[C@@H]6CCC(=O)N6)oc5c4)c3Cl)c2Cl)ccc1CNC[C@@H]1CCC(=O)N1` [Example 248, (S)-5-((((6-(2,2′-Dichloro-3′-(2-(((((S)-5-oxopyrrolidin-2-yl)methyl)amino)methyl)benzo[d]oxazol-6-yl)-[1,1′-biphenyl]-3-yl)-2-methoxypyridin-3-yl)methyl)amino)methyl)pyrrolidin-2-one], the figure is 250 nM.
The molecule `COc1nc(-c2cccc(-c3cccc(-c4ccn5c(=O)c(CNCC67CCC(C6)C(=O)N7)cnc5c4)c3Cl)c2Cl)ccc1CNC[C@@H]1CCC(=O)N1` (stereo partly drawn) [Example 252, 8-[2-Chloro-3-[2-chloro-3-[6-methoxy-5-[[[(2S)-5-oxopyrrolidin-2-yl]methylamino]methyl]-2-pyridyl]phenyl]phenyl]-3-[[(3-oxo-2-azabicyclo[2.2.1]heptan-1-yl)methylamino]methyl]pyrido[1,2-a]pyrimidin-4-one] registered an IC50 of 4.7 nM.
As for `COc1nc(-c2cccc(-c3cccc(-c4cc(C)n5c(=O)c(CN[C@H]6C[C@@](C)(O)C6)cnc5c4)c3Cl)c2Cl)ccc1CNC[C@@H]1CCC(=O)N1` [Example 254, 8-(2,2′-Dichloro-3′-(6-methoxy-5-(((((S)-5-oxopyrrolidin-2-yl)methyl)amino)methyl)pyridin-2-yl)-[1,1′-biphenyl]-3-yl)-3-((((1s,3s)-3-hydroxy-3-methylcyclobutyl)amino)methyl)-6-methyl-4H-pyrido[1,2-a]pyrimidin-4-one], the figure is 61 nM.
In turn, `CNC(=O)C1CN(Cc2cnc3cc(-c4cccc(-c5cccc(-c6ccc(CNC[C@@H]7CCC(=O)N7)c(OC)n6)c5Cl)c4Cl)ccn3c2=O)C1` [Example 255, (S)-1-((8-(2,2′-Dichloro-3′-(6-methoxy-5-((((5-oxopyrrolidin-2-yl)methyl)amino)methyl)pyridin-2-yl)-[1,1′-biphenyl]-3-yl)-4-oxo-4H-pyrido[1,2-a]pyrimidin-3-yl)methyl)-N-methylazetidine-3-carboxamide] had an IC50 of 0.1 nM. This IC50 lies about 610-fold lower than the previous one.
As for `COc1nc(-c2cccc(-c3cccc(-c4ccn5c(=O)c(CNC6CCN(C(C)=O)CC6)cnc5c4)c3Cl)c2Cl)ccc1CNC[C@@H]1CCC(=O)N1` [Example 256, 3-[[(1-Acetyl-4-piperidyl)amino]methyl]-8-[2-chloro-3-[2-chloro-3-[6-methoxy-5-[[[(2S)-5-oxopyrrolidin-2-yl]methylamino]methyl]-2-pyridyl]phenyl]phenyl]pyrido[1,2-a]pyrimidin-4-one], the figure is 0.1 nM.
`CNC(=O)[C@H]1CCN(Cc2cnc3cc(-c4cccc(-c5cccc(-c6ccc(CNC[C@@H]7CCC(=O)N7)c(OC)n6)c5Cl)c4Cl)ccn3c2=O)C1` [Example 257, (S)-1-((8-(2,2′-Dichloro-3′-(6-methoxy-5-(((((S)-5-oxopyrrolidin-2-yl)methyl)amino)methyl)pyridin-2-yl)-[1,1′-biphenyl]-3-yl)-4-oxo-4H-pyrido[1,2-a]pyrimidin-3-yl)methyl)-N-methylpyrrolidine-3-carboxamide] showed an IC50 of 1.9 nM.
As for `COc1nc(-c2cccc(-c3cccc(-c4cc5ncc(CNC[C@@H]6CCC(=O)N6)cc5cn4)c3Cl)c2Cl)ccc1CNC[C@@H]1CCC(=O)N1` [Example 258, (S)-5-((((6-(2,2′-Dichloro-3′-(3-(((((S)-5-oxopyrrolidin-2-yl)methyl)amino)methyl)-1,6-naphthyridin-7-yl)-[1,1′-biphenyl]-3-yl)-2-methoxypyridin-3-yl)methyl)amino)methyl) pyrrolidin-2-one], the figure is 0.1 nM.
Then `COc1nc(-c2cccc(-c3cccc(-c4ccn5c(=O)c(CN[C@@H](C)C(N)=O)cnc5c4)c3Cl)c2Cl)ccc1CNC[C@@H]1CCC(=O)N1` [Example 260, (2S)-2-[[8-[2-Chloro-3-[2-chloro-3-[6-methoxy-5-[[[(2S)-5-oxopyrrolidin-2-yl]methylamino]methyl]-2-pyridyl]phenyl]phenyl]-4-oxo-pyrido[1,2-a]pyrimidin-3-yl]methylamino]propenamide], with 0.1 nM.
